# Measured values reported in patent US11013235B2 (priority 2015, dated 2021).
# Where two headings read alike, the source gives them in different places.
# Tests used:
# Assay type in all cases: in vivo
# Meloidogyne incognita = assay: Nematode control, nodules per plant: Meloidogyne incognita; details: 1 μM foliar application every 5 days, evaluation 35 days after, control 34
# Description: (§1) The solutions of the compounds were prepared in ethanol and diluted in water, up to a concentration of 1 μM for a foliar application. Applications were conducted every 5 days, spraying only the leafs with each compound. Ten plants were used for each treatment and the final evaluation was performed 35 days after, by quantifying the number of nodules per plant.
# Radopholus similis = assay: Nematode control, nodules per plant: Radopholus similis; details: 1 μM foliar application every 5 days, evaluation 35 days after, control 45
# Description: as §1
# [1] = test system: Candidatus 'Liberibacter asiaticus'; details: spraying every 15 days, 12 months after treatment, Citrus sinensis with HLB
# Botrytis cinerea [2] = assay: Control of Botrytis cinerea disease in Arabidopsis (Bc-At); details: 1 μM spraying every 24 hours for one week, water control 8.7
# Description: (§2) In order to compare the effect of the compounds of formula I to V on the control of diseases in different plants, experiments were conducted in tobacco, tomato and Arabidopsis thaliana plants inoculated with Phytophthora parasitica, Rhizoctonia solani, Alternaria solani, Nocardia sp and Botrytis cinerea, respectively. The compounds were applied by spraying, at a concentration of 1 μM, every 24 hours for one week. The plant mortality rate was determined for the disease produced by Phytophthora parasitica, Rhizoctonia solani and Nocardia sp, while the percentage of leaves with symptoms was determined for the infection by Alternaria solani. In the case of plants affected by Botrytis cinerea, the lesion diameter was measured. […] Each treatment included fifty plants. As control, plants treated with water were studied. The plants of each treatment were previously inoculated with the indicated pathogens, according to different inoculation protocols (Frontiers in Plant Science 3: 268, 1-6, 2012), and later they were treated with the compounds.
# Botrytis cinerea [3] = assay: Control of Botrytis cinerea disease in tomato (Bc-SI); details: 1 μM spraying every 24 hours for one week, water control 7.4
# Description: as §2
# Pratylenchus coffeae = assay: Nematode control, nodules per plant: Pratylenchus coffeae; details: 1 μM foliar application every 5 days, evaluation 35 days after, control 42
# Description: as §1
# Rhizoctonia solani [4] = assay: Control of Rhizoctonia solani disease in tobacco (Rs-Nt); details: 1 μM spraying every 24 hours for one week, water control 87
# Description: as §2
# Rhizoctonia solani [5] = assay: Control of Rhizoctonia solani disease in tomato (Rs-SI); details: 1 μM spraying every 24 hours for one week, water control 96
# Description: as §2
# Phytophthora parasitica = assay: Control of Phytophthora parasitica disease in tobacco (Pp-Nt); details: 1 μM spraying every 24 hours for one week, water control 91
# Description: as §2
# Nocardia sp = assay: Control of Nocardia sp disease in tobacco (N-Nt); details: 1 μM spraying every 24 hours for one week, water control 58
# Description: as §2
# Alternaria solani = assay: Control of Alternaria solani disease in tomato (As-SI); details: 1 μM spraying every 24 hours for one week, water control 68
# Description: as §2
# Botrytis cinerea [6] = assay: Control of Botrytis cinerea disease in tobacco (Bc-Nt); details: 1 μM spraying every 24 hours for one week, water control 6.7
# Description: as §2
Compound,Mi: number of nodules per plant (Meloidogyne incognita),Rs: number of nodules per plant (Radopholus similis),Titers of the bacterium ([1]; 0.001 μM),Titers of the bacterium ([1]; 0.01 μM),Titers of the bacterium ([1]; 1 μM),Titers of the bacterium ([1]; 5 μM),Titers of the bacterium ([1]; 10 μM),Bc-At: mean of the diameter of the lesion (Botrytis cinerea [2]),Bc-SI: mean of the diameter of the lesion (Botrytis cinerea [3]),Pc: number of nodules per plant (Pratylenchus coffeae),Rs-Nt: percentage of mortality (Rhizoctonia solani [4]),Rs-SI: percentage of mortality (Rhizoctonia solani [5]),Pp-Nt: percentage of mortality (Phytophthora parasitica),N-Nt: percentage of mortality (Nocardia sp),As-SI: percentage of leaves with the disease symptoms (Alternaria solani),Bc-Nt: mean of the diameter of the lesion (Botrytis cinerea [6])
"O=C(Cc1cc2c(oc1=O)C=CC1C=COC21)NCC(O)CO (stereo not shown) [IIF, N-(2,3-dihydroxypropyl)-2-{11-oxo-3,10-dioxatricyclo[7.4.0.0^{2,6}]trideca-1(9),4,7,12-tetraen-12-yl}acetamide]",0,0,657 copies per reaction,9 copies per reaction,0 copies per reaction,67 copies per reaction,6547 copies per reaction,1.1 mm,1.6 mm,0,0%,1%,0%,0%,5%,2.0 mm
"O=C(Cc1cc2c(oc1=O)C=CC1C(n3cccc3)=COC21)NCC(O)CO (stereo not shown) [IIG, N-(2,3-dihydroxypropyl)-2-[11-oxo-5-(1H-pyrrol-1-yl)-3,10-dioxatricyclo[7.4.0.0^{2,6}]trideca-1(9),4,7,12-tetraen-12-yl]acetamide]",0,3,658 copies per reaction,0 copies per reaction,3 copies per reaction,68 copies per reaction,4587 copies per reaction,0.5 mm,0.8 mm,0,0%,1%,3%,0%,7%,0.9 mm
"CC1=COC2c3c(oc(=O)c(CC(=O)NCC(O)CO)c3C)C=CC12 (stereo not shown) [IIH, N-(2,3-dihydroxypropyl)-2-{5,13-dimethyl-11-oxo-3,10-dioxatricyclo[7.4.0.0^{2,6}]trideca-1(9),4,7,12-tetraen-12-yl}acetamide]",2,16,756 copies per reaction,0 copies per reaction,1 copies per reaction,76 copies per reaction,2365 copies per reaction,1.5 mm,2.5 mm,18,2%,3%,1%,1%,1%,1.5 mm
"Cc1c2c(oc(=O)c1CC(=O)NCC(O)CO)C=CC1C(c3ccccc3)=COC21 (stereo not shown) [III, N-(2,3-dihydroxypropyl)-2-{13-methyl-11-oxo-5-phenyl-3,10-dioxatricyclo[7.4.0.0^{2,6}]trideca-1(9),4,7,12-tetraen-12-yl}acetamide]",3,2,456 copies per reaction,0 copies per reaction,1 copies per reaction,56 copies per reaction,3654 copies per reaction,2.4 mm,0.8 mm,1,3%,2%,2%,1%,2%,1.5 mm
"CN1CCN(c2ncc(C(=O)N3CC4CC(O)C(O)CC4C3)cn2)CC1 (stereo not shown) [IIIA, 2-{[2-(4-methylpiperazin-1-yl)pyrimidin-5-yl]carbonyl}-octahydro-1H-isoindole-5,6-diol]",2,11,432 copies per reaction,0 copies per reaction,0 copies per reaction,43 copies per reaction,2365 copies per reaction,2.4 mm,0.8 mm,16,2%,3%,1%,1%,1%,1.5 mm
"Cc1nc(N2CCN(C)CC2)ncc1C(=O)N1CC2CC(O)C(O)CC2C1 (stereo not shown) [IIIB, 2-{[4-methyl-2-(4-methylpiperazin-1-yl)pyrimidin-5-yl]carbonyl}-octahydro-1H-isoindole-5,6-diol]",3,2,123 copies per reaction,0 copies per reaction,0 copies per reaction,23 copies per reaction,8546 copies per reaction,0.7 mm,1.2 mm,16,3%,2%,2%,1%,2%,0.9 mm
"O=C(c1cnc(N2CCN(c3ccccc3)CC2)nc1)N1CC2CC(O)C(O)CC2C1 (stereo not shown) [IIIC, 2-{[2-(4-phenylpiperazin-1-yl)pyrimidin-5-yl]carbonyl}-octahydro-1H-isoindole-5,6-diol]",4,14,587 copies per reaction,0 copies per reaction,0 copies per reaction,87 copies per reaction,3654 copies per reaction,1.2 mm,0.8 mm,2,4%,2%,1%,2%,3%,0.3 mm
